Measurements reported in publication PMC12193833, “Toxicity Assessment and Antifungal Potential of Copper(II) and Silver(I) Complexes with 1,10-Phenanthroline-5,6-dione Against Drug-Resistant Clinical Isolates of Cryptococcus gattii and Cryptococcus neoformans” (Journal of Fungi, 2025).
Values after ≈ are worked out from the molar mass of the structure shown.

Columns and labels:
[1] = tested on: C. neoformans clinical isolates; assay: MIC/MFC of test compounds, microdilution; type: cell-based, Cryptococcus neoformans
Excerpt: (§1) Six clinical isolates belonging to the Cryptococcus genus were obtained from patients who attended the Instituto Nacional de Infectologia Evandro Chagas (INI), Fundação Oswaldo Cruz (FIOCRUZ), and were kindly provided by Dr. Rodrigo Almeida-Paes (INI-FIOCRUZ). To comply with ethical standards and institutional agreements between UFRJ and FIOCRUZ, patient data were not disclosed. In this sense, the C. neoformans isolates were designated CFP00213 (213), CFP00223 (223), and CFP00350 (350), while the C. gattii isolates were labeled CFP00023 (23), CFP00025 (25), and CFP00027 (27). Before each experiment, an aliquot of the culture was transferred from Sabouraud dextrose agar (2% glucose, 1% peptone, and 0.5% yeast extract) to RPMI 1640 medium (Sigma-Aldrich, St. Louis, MO, USA), pH 7.2, buffered with 0.165 M MOPS (Sigma-Aldrich, St. Louis, MO, USA). RPMI medium induces the expression of capsular polysaccharides, the primary virulence factor of Cryptococcus cells. The cultures were incubated at 37 °C for 48 h to promote cell proliferation, stimulate metabolic activation, and enhance capsular development. Yeast cell counts were determined using a Neubauer chamber.
(§2) Following MIC determination, the MFC was assessed by inoculating 10 µL from wells showing no visible fungal growth onto Sabouraud dextrose agar. […] To further support and strengthen the evidence of the anti-Cryptococcus activity of the Cu-phendione and Ag-phendione complexes, we additionally performed MIC/MFC assays using well-characterized standard reference strains: ATCC 28957, H99, T1444 (all C. neoformans), and R265 (C. gattii).

[2] = tested on: C. gattii clinical isolates; assay: MIC/MFC of test compounds, microdilution; type: cell-based, Cryptococcus gattii
Excerpt: as §1, §2

[3] = tested on: Galleria mellonella larvae; assay: In vivo acute toxicity, single treatment; conditions: single inoculation; for Larval survival: 125–1000 µM, 10 µL/larva, 37 °C
Description: In this set of experiments, G. mellonella larvae weighing approximately 0.2–0.3 g and displaying clear, uniform coloration were used. The larvae were inoculated (10 µL/larva) using an insulin syringe (BD Ultra-Fine, Franklin Lakes, NJ, USA) at the last left proleg. […] We also assessed their coloration through visual analysis as an indicator of stress levels. Throughout the experiments, the larvae were maintained at 37 °C [19, 42]. Two distinct treatment protocols were designed to evaluate the effects of the test compounds on larval survivability, as detailed below.
For the acute toxicity analysis, the test compounds were administered to the larvae in a single inoculation at concentrations ranging from 1000 to 125 μM. Each group consisted of 10 larvae, while the control group received only sterile PBS with 4% DMSO. […] The SI was calculated using the following equation: SI = G. mellonella CC50/Cryptococcus MIC.

[4] = tested on: C. gattii clinical isolates; assay: Susceptibility to clinically available antifungals, CLSI M27-A3 microdilution; type: cell-based; conditions: Cryptococcus gattii
Excerpt: as §1
(§3) The susceptibility profile was evaluated using the microdilution method in RPMI 1640 medium buffered with 0.165 M MOPS, following the M27-A3 protocol for yeasts established by the Clinical and Laboratory Standards Institute (CLSI). […] Each fungal isolate was classified as either wild-type or non-wild-type for each antifungal based on the epidemiological cutoff values provided in CLSI M59 ED3, 2020 [32].

[5] = tested on: C. neoformans clinical isolates; assay: as above; type: cell-based; conditions: Cryptococcus neoformans
Excerpt: as §1, §3

[6] = tested on: six clinical Cryptococcus isolates; assay: Susceptibility to clinically available antifungals, all six isolates; type: cell-based, Cryptococcus neoformans and Cryptococcus gattii
Excerpt: as §1, §3

[7] = tested on: G. mellonella; conditions: cited from earlier work
[8] = C. neoformans isolate 213, read-out: MIC
[9] = C. neoformans isolate 223, read-out: MIC
[10] = C. neoformans isolate 350, read-out: MIC
[11] = all C. neoformans clinical isolates
[12] = C. gattii isolate 23, read-out: MIC
[13] = C. gattii isolate 25, read-out: MIC
[14] = C. gattii isolate 27, read-out: MIC
[15] = all C. gattii clinical isolates
[16] = 24 h, C. gattii isolate 23, 37 °C
[17] = 24 h, C. gattii isolate 25, 37 °C
[18] = 24 h, C. gattii isolate 27, 37 °C
[19] = C. gattii isolate 23, value in brackets
[20] = C. gattii isolate 25, value in brackets
[21] = C. gattii isolate 27, value in brackets
[22] = 24 h, C. neoformans isolate 213, 37 °C
[23] = 24 h, C. neoformans isolate 223, 37 °C
[24] = 24 h, C. neoformans isolate 350, 37 °C
[25] = C. neoformans isolate 213, value in brackets
[26] = C. neoformans isolate 223, value in brackets
[27] = C. neoformans isolate 350, value in brackets
[28] = across all six clinical Cryptococcus isolates

[Ag+].[O-][Cl+3]([O-])([O-])[O-] [AgClO4, silver perchlorate]
MFC ([1]; C. neoformans isolate 213): > 100 µM
MIC [1, 8]: 1.56 µM
MFC ([1]; C. neoformans isolate 223): > 100 µM
MIC [1, 9]: 1.56 µM
MFC ([1]; C. neoformans isolate 350): > 100 µM
MIC [1, 10]: 1.56 µM
MFC [1, 11]: > 100 µM
MIC ([1]; all C. neoformans clinical isolates, read-out: MIC): 1.56 µM
MFC ([2]; C. gattii isolate 23): 12.5 µM
MIC [2, 12]: 1.56 µM
MFC ([2]; C. gattii isolate 25): 12.5 µM
MIC [2, 13]: 1.56 µM
MFC ([2]; C. gattii isolate 27): 12.5 µM
MIC [2, 14]: 1.56 µM
MFC [2, 15]: 12.5 µM
MIC ([2]; all C. gattii clinical isolates, read-out: MIC): 1.56 µM
Larval mortality ([3]; 250 µM): 20%
Larval mortality ([3]; 500 µM): 20%
Larval mortality ([3]; 1000 µM): 50%

C[C@@H]1[C@H](O)[C@@H](C)/C=C/C=C/C=C/C=C/C=C/C=C/C=C/[C@H](O[C@@H]2O[C@H](C)[C@@H](O)[C@H](N)[C@@H]2O)C[C@@H]2O[C@](O)(C[C@@H](O)C[C@@H](O)[C@H](O)CC[C@@H](O)C[C@@H](O)CC(=O)O[C@H]1C)C[C@H](O)[C@H]2C(=O)O [Amphotericin B, amphotericin B]
MIC [4, 16]: 0.03 µg/mL
MIC [4, 17]: 0.03 µg/mL
MIC [4, 18]: 0.03 µg/mL
MIC [4, 19]: 0.03 µM
MIC [4, 20]: 0.03 µM
MIC [4, 21]: 0.03 µM
MIC [5, 22]: 0.03 µg/mL
MIC [5, 23]: > 16 µg/mL
MIC [5, 24]: 0.03 µg/mL
MIC [5, 25]: 0.03 µM
MIC [5, 26]: > 17.3 µM
MIC [5, 27]: 0.03 µM
MIC ([6]; all other Cryptococcus isolates (except C. neoformans isolate printed as 233)): 0.03 µg/mL (≈ 0.0325 µM)

CC[C@H](C)C[C@H](C)CCCCCCCCC(=O)N[C@H]1C[C@@H](O)[C@@H](NCCN)NC(=O)[C@@H]2[C@@H](O)CCN2C(=O)[C@H]([C@H](O)CCN)NC(=O)[C@H]([C@H](O)[C@@H](O)c2ccc(O)cc2)NC(=O)[C@@H]2C[C@@H](O)CN2C(=O)[C@H]([C@@H](C)O)NC1=O [Caspofungin, caspofungin]
MIC [4, 16]: > 8 µg/mL
MIC [4, 17]: > 8 µg/mL
MIC [4, 18]: > 8 µg/mL
MIC [4, 19]: > 7.3 µM
MIC [4, 20]: > 7.3 µM
MIC [4, 21]: > 7.3 µM
MIC [5, 22]: > 8 µg/mL
MIC [5, 23]: > 8 µg/mL
MIC [5, 24]: > 8 µg/mL
MIC [5, 25]: > 7.3 µM
MIC [5, 26]: > 7.3 µM
MIC [5, 27]: > 7.3 µM
MIC [6, 28]: > 8 µg/mL
Hemocyte density [7]: do not increase hemocyte density

O.O.O.O.O.O.[Cu+2].[O-][Cl+3]([O-])([O-])[O-].[O-][Cl+3]([O-])([O-])[O-] [Cu(ClO4)2.6H2O, copper perchlorate]
MIC ([1]; C. neoformans isolate 213): >100/ND µM
MIC ([1]; C. neoformans isolate 223): >100/ND µM
MIC ([1]; C. neoformans isolate 350): >100/ND µM
MIC [1, 11]: no antifungal activity
MIC ([2]; C. gattii isolate 23): >100/ND µM
MIC ([2]; C. gattii isolate 25): >100/ND µM
MIC ([2]; C. gattii isolate 27): >100/ND µM
MIC [2, 15]: no antifungal activity
Larval survival [3]: 100%

OC(Cn1cncn1)(Cn1cncn1)c1ccc(F)cc1F [Fluconazole, fluconazole]
MIC [4, 16]: 32 µg/mL
MIC [4, 17]: 16 µg/mL
MIC [4, 18]: 16 µg/mL
MIC [4, 19]: 104 µM
MIC [4, 20]: 52.2 µM
MIC [4, 21]: 52.2 µM
MIC [6, 28]: ≥ 4 µg/mL

Nc1[nH]c(=O)ncc1F [Flucytosine, flucytosine]
MIC [4, 16]: 0.125 µg/mL
MIC [4, 17]: 4 µg/mL
MIC [4, 18]: 4 µg/mL
MIC [4, 19]: 0.96 µM
MIC [4, 20]: 30 µM
MIC [4, 21]: 30 µM
MIC [5, 22]: 4 µg/mL
MIC [5, 23]: 64 µg/mL
MIC [5, 24]: 16 µg/mL
MIC [5, 25]: 30 µM
MIC [5, 26]: 496 µM
MIC [5, 27]: 124 µM

O=C1C(=O)c2cccnc2-c2ncccc21 [Phendione, 1,10-Phenanthroline-5,6-dione]
MIC [1, 8]: 12.5 µM (≈ 2.63 µg/mL)
MIC [1, 9]: 12.5 µM (≈ 2.63 µg/mL)
MIC [1, 10]: 12.5 µM (≈ 2.63 µg/mL)
MFC ([1]; Cryptococcus neoformans, C. neoformans isolate 213): > 100 µM
MFC ([1]; Cryptococcus neoformans, C. neoformans isolate 223): 100 µM (≈ 21 µg/mL)
MFC ([1]; Cryptococcus neoformans, C. neoformans isolate 350): 100 µM (≈ 21 µg/mL)
MFC ([1]; Cryptococcus neoformans, all C. neoformans clinical isolates): ≥ 100 µM
MIC ([1]; Cryptococcus neoformans, all C. neoformans clinical isolates, read-out: MIC): 12.5 µM (≈ 2.63 µg/mL)
MIC [2, 12]: 12.5 µM (≈ 2.63 µg/mL)
MIC [2, 13]: 12.5 µM (≈ 2.63 µg/mL)
MIC [2, 14]: 12.5 µM (≈ 2.63 µg/mL)
MFC ([2]; Cryptococcus gattii, C. gattii isolate 23): > 100 µM
MFC ([2]; Cryptococcus gattii, C. gattii isolate 25): 100 µM (≈ 21 µg/mL)
MFC ([2]; Cryptococcus gattii, C. gattii isolate 27): > 100 µM
MFC ([2]; Cryptococcus gattii, all C. gattii clinical isolates): ≥ 100 µM
MIC ([2]; Cryptococcus gattii, all C. gattii clinical isolates, read-out: MIC): 12.5 µM (≈ 2.63 µg/mL)
Larval survival [3]: 100%
